# Source: patent US20050163814A1, “Granulated phosphoroamido(di) thioates” (priority 2002, published 2005)
# Where “and” joins values, the source holds several entries; their conditions need not be identical. Equal values may be shown once. Marks after values point to notes of the source that are not given here.
# Legend:
# Format in all cases: physicochemical
# [1] = GE Brightness of acephate powder; conditions: bulk powder, reflected light
# Description: A sample of technical grade acephate crystals was obtained (Examples 1 and 3) and compared. […] Half of each sample was analyzed for brightness and particle size distribution.
# Milling caused a measurable increase in the brightness of the bulk powder sample as measured by reflected light. Such an increase is visually apparent as a noticeably brighter powder when compared side-by-side under the GE Brightness test.
# [2] = Crystal dimensions by visual inspection; conditions: for Crystal dimensions: length / Crystal dimensions: width: Table 4; for Aspect ratio: length:width; for average crystal length / average width: visual inspection
# Source text: The unmilled acephate from example 3 was a commercially available technical grade having elongated cylindrical shaped crystals with an average crystal length of 250-500 μm and an average width of 40-100 μm. In contrast, the acephate powder of example 4 was made of substantially cylindrical shaped crystals with an average crystal length of less than about 150 μm and an average width of less than 40 μm.
# [3] = Particle size distribution (sieve openings) of acephate technical
# Description: The other half of the Source B sample was analyzed for particle size distribution as received and with the milling according to the invention. FIG. 1 (unmilled) and FIG. 2 (milled) are graphs of the particle size distributions from the milling process. All values are in terms of weight percent of total sample that could pass through the designated sieve opening.
# [4] = up to Sieve Size >177 μm, subject to rounding
smiles,measurement,setting,value
"COP(=O)(NC(C)=O)SC (stereo not shown) [Ex. 1, acephate, reference compound]",GE Brightness,[1],87.2
"COP(=O)(NC(C)=O)SC (stereo not shown) [Ex. 2, acephate]",GE Brightness,[1],88.4
"COP(=O)(NC(C)=O)SC (stereo not shown) [Ex. 3, acephate, reference compound]",GE Brightness,[1],90.2
same,Crystal dimensions: length,[2]; listed as Unmilled,100-280 μm
same,Crystal dimensions: width,[2]; listed as Unmilled,40-50 μm
same,Aspect ratio,[2]; listed as Unmilled,2.5-5.6
same,average crystal length,[2],250-500 μm
same,average width,[2],40-100 μm
same,"Summary Particle Size Distribution, Range","[3]; Sieve Size 2.3-3.9 μm, listed as Unmilled",14.55 wt %
same,"Summary Particle Size Distribution, Range","[3]; Sieve Size 4.6-16 μm, listed as Unmilled",33.43 wt %
same,"Summary Particle Size Distribution, Range","[3]; Sieve Size 4.6-37 μm, listed as Unmilled",50.51 wt %
same,"Summary Particle Size Distribution, Range","[3]; Sieve Size 4.6-88 μm, listed as Unmilled",65.44 wt %
same,"Summary Particle Size Distribution, Range","[3]; Sieve Size 19-37 μm, listed as Unmilled",17.08 wt %
same,"Summary Particle Size Distribution, Range","[3]; Sieve Size 44-88 μm, listed as Unmilled",14.93 wt %
same,"Summary Particle Size Distribution, Range","[3]; Sieve Size 105-149 μm, listed as Unmilled",4.97 wt %
same,"Summary Particle Size Distribution, Range","[3]; Sieve Size <1.9 μm, listed as Unmilled",13.27 wt %
same,"Summary Particle Size Distribution, Range","[3]; Sieve Size <3.9 μm, listed as Unmilled",27.83 wt %
same,"Summary Particle Size Distribution, Range","[3]; Sieve Size >105 μm, listed as Unmilled",6.73 wt %
same,"Summary Particle Size Distribution, Range","[3]; Sieve Size >177 μm, listed as Unmilled",1.76 wt %
same,Particle Size Distribution,"[3]; Size 1.9 μm, listed as Unmilled",3.6123 weight percent
same,Particle Size Distribution,"[3]; Size 2.3 μm, listed as Unmilled",1.6125 weight percent
same,Particle Size Distribution,"[3]; Size 2.8 μm, listed as Unmilled",3.3402 weight percent
same,Particle Size Distribution,"[3]; Size 3.3 μm, listed as Unmilled",5.0469 weight percent
same,Particle Size Distribution,"[3]; Size 3.9 μm, listed as Unmilled",4.5533 weight percent
same,Particle Size Distribution,"[3]; Size 4.6 μm, listed as Unmilled",2.9044 weight percent
same,Particle Size Distribution,"[3]; Size 5.5 μm, listed as Unmilled",3.2481 weight percent
same,Particle Size Distribution,"[3]; Size 6.5 μm, listed as Unmilled",5.7966 weight percent
same,Particle Size Distribution,"[3]; Size 7.8 μm, listed as Unmilled",4.6403 weight percent
same,Particle Size Distribution,"[3]; Size 9.2 μm, listed as Unmilled",4.2474 weight percent
same,Particle Size Distribution,"[3]; Size 11 μm, listed as Unmilled",4.6232 weight percent
same,Particle Size Distribution,"[3]; Size 13 μm, listed as Unmilled",4.6531 weight percent
same,Particle Size Distribution,"[3]; Size 16 μm, listed as Unmilled",3.3203 weight percent
same,Particle Size Distribution,"[3]; Size 19 μm, listed as Unmilled",3.2150 weight percent
same,Particle Size Distribution,"[3]; Size 22 μm, listed as Unmilled",3.1651 weight percent
same,Particle Size Distribution,"[3]; Size 26 μm, listed as Unmilled",3.7619 weight percent
same,Particle Size Distribution,"[3]; Size 31 μm, listed as Unmilled",3.7231 weight percent
same,Particle Size Distribution,"[3]; Size 37 μm, listed as Unmilled",3.2123 weight percent
same,Particle Size Distribution,"[3]; Size 44 μm, listed as Unmilled",3.0323 weight percent
same,Particle Size Distribution,"[3]; Size 53 μm, listed as Unmilled",3.3767 weight percent
same,Particle Size Distribution,"[3]; Size 63 μm, listed as Unmilled",3.2501 weight percent
same,Particle Size Distribution,"[3]; Size 75 μm, listed as Unmilled",2.8069 weight percent
same,Particle Size Distribution,"[3]; Size 88 μm, listed as Unmilled",2.4665 weight percent
same,Particle Size Distribution,"[3]; Size 105 μm, listed as Unmilled",2.0819 weight percent
same,Particle Size Distribution,"[3]; Size 125 μm, listed as Unmilled",1.5293 weight percent
same,Particle Size Distribution,"[3]; Size 149 μm, listed as Unmilled",1.3606 weight percent
same,Particle Size Distribution,"[3]; Size 177 μm, listed as Unmilled",0.7768 weight percent
same,Particle Size Distribution,"[3]; Size 210 μm, listed as Unmilled",0.4565 weight percent
same,Particle Size Distribution,"[3]; Size 250 μm, listed as Unmilled",0.2321 weight percent
same,Particle Size Distribution,"[3]; Size 298 μm, listed as Unmilled",0.1849 weight percent
same,Particle Size Distribution,"[3]; Size <1.9 μm, listed as Unmilled",9.6625 weight percent
same,Particle Size Distribution,"[3]; Size >298 μm, listed as Unmilled",0.1068 weight percent
same,mean particle size,[3]; listed as Unmilled,30.4 μm
same,median particle size,[3]; listed as Unmilled,11.7 μm
same,"Summary Particle Size Distribution, Cumul.","[3]; up to Sieve Size 2.3-3.9 μm, listed as Unmilled",27.83 wt %
same,"Summary Particle Size Distribution, Cumul.","[3]; up to Sieve Size 4.6-16 μm, listed as Unmilled",61.26 wt %
same,"Summary Particle Size Distribution, Cumul.","[3]; up to Sieve Size 19-37 μm, listed as Unmilled",78.34 wt %
same,"Summary Particle Size Distribution, Cumul.","[3]; up to Sieve Size 44-88 μm, listed as Unmilled",93.27 wt %
same,"Summary Particle Size Distribution, Cumul.","[3]; up to Sieve Size 105-149 μm, listed as Unmilled",98.24 wt %
same,"Summary Particle Size Distribution, Cumul.","[3]; up to Sieve Size <1.9 μm, listed as Unmilled",13.27 wt %
same,"Summary Particle Size Distribution, Cumul.",[3]; [4],˜100* wt %
"COP(=O)(NC(C)=O)SC (stereo not shown) [Ex. 4, acephate]",GE Brightness,[1],93.7
same,Crystal dimensions: length,[2]; listed as Milled,40-90 μm
same,Crystal dimensions: width,[2]; listed as Milled,20-25 μm
same,Aspect ratio,[2]; listed as Milled,2-3.6
same,average crystal length,[2],less than 150 μm
same,average width,[2],less than 40 μm
same,"Summary Particle Size Distribution, Range","[3]; Sieve Size 2.3-3.9 μm, listed as Milled",15.26 wt %
same,"Summary Particle Size Distribution, Range","[3]; Sieve Size 4.6-16 μm, listed as Milled",41.93 wt %
same,"Summary Particle Size Distribution, Range","[3]; Sieve Size 4.6-37 μm, listed as Milled",62.09 wt %
same,"Summary Particle Size Distribution, Range","[3]; Sieve Size 4.6-88 μm, listed as Milled",71.47 wt %
same,"Summary Particle Size Distribution, Range","[3]; Sieve Size 19-37 μm, listed as Milled",20.16 wt %
same,"Summary Particle Size Distribution, Range","[3]; Sieve Size 44-88 μm, listed as Milled",9.39 wt %
same,"Summary Particle Size Distribution, Range","[3]; Sieve Size 105-149 μm, listed as Milled",1.38 wt %
same,"Summary Particle Size Distribution, Range","[3]; Sieve Size <1.9 μm, listed as Milled",11.73 wt %
same,"Summary Particle Size Distribution, Range","[3]; Sieve Size <3.9 μm, listed as Milled",26.99 wt %
same,"Summary Particle Size Distribution, Range","[3]; Sieve Size >105 μm, listed as Milled",1.54 wt % and 1.68 wt %
same,"Summary Particle Size Distribution, Range","[3]; Sieve Size >177 μm, listed as Milled",0.30 wt %
same,Particle Size Distribution,"[3]; Size 1.9 μm, listed as Milled",3.7746 weight percent
same,Particle Size Distribution,"[3]; Size 2.3 μm, listed as Milled",1.8957 weight percent
same,Particle Size Distribution,"[3]; Size 2.8 μm, listed as Milled",3.9085 weight percent
same,Particle Size Distribution,"[3]; Size 3.3 μm, listed as Milled",4.3981 weight percent
same,Particle Size Distribution,"[3]; Size 3.9 μm, listed as Milled",5.0539 weight percent
same,Particle Size Distribution,"[3]; Size 4.6 μm, listed as Milled",4.0079 weight percent
same,Particle Size Distribution,"[3]; Size 5.5 μm, listed as Milled",4.6002 weight percent
same,Particle Size Distribution,"[3]; Size 6.5 μm, listed as Milled",5.3931 weight percent
same,Particle Size Distribution,"[3]; Size 7.8 μm, listed as Milled",5.6669 weight percent
same,Particle Size Distribution,"[3]; Size 9.2 μm, listed as Milled",6.1254 weight percent
same,Particle Size Distribution,"[3]; Size 11 μm, listed as Milled",6.0030 weight percent
same,Particle Size Distribution,"[3]; Size 13 μm, listed as Milled",5.4418 weight percent
same,Particle Size Distribution,"[3]; Size 16 μm, listed as Milled",4.6925 weight percent
same,Particle Size Distribution,"[3]; Size 19 μm, listed as Milled",4.8575 weight percent
same,Particle Size Distribution,"[3]; Size 22 μm, listed as Milled",4.9085 weight percent
same,Particle Size Distribution,"[3]; Size 26 μm, listed as Milled",4.4529 weight percent
same,Particle Size Distribution,"[3]; Size 31 μm, listed as Milled",3.4498 weight percent
same,Particle Size Distribution,"[3]; Size 37 μm, listed as Milled",2.4873 weight percent
same,Particle Size Distribution,"[3]; Size 44 μm, listed as Milled",2.0818 weight percent
same,Particle Size Distribution,"[3]; Size 53 μm, listed as Milled",2.3280 weight percent
same,Particle Size Distribution,"[3]; Size 63 μm, listed as Milled",2.2067 weight percent
same,Particle Size Distribution,"[3]; Size 75 μm, listed as Milled",1.5439 weight percent
same,Particle Size Distribution,"[3]; Size 88 μm, listed as Milled",1.2313 weight percent
same,Particle Size Distribution,"[3]; Size 105 μm, listed as Milled",0.8371 weight percent
same,Particle Size Distribution,"[3]; Size 125 μm, listed as Milled",0.4144 weight percent
same,Particle Size Distribution,"[3]; Size 149 μm, listed as Milled",0.1331 weight percent
same,Particle Size Distribution,"[3]; Size 177 μm, listed as Milled",0.1199 weight percent
same,Particle Size Distribution,"[3]; Size 210 μm, listed as Milled",0.0486 weight percent
same,Particle Size Distribution,"[3]; Size 250 μm, listed as Milled",0.132 weight percent
same,Particle Size Distribution,"[3]; Size 298 μm, listed as Milled",0.0000 weight percent
same,Particle Size Distribution,"[3]; Size <1.9 μm, listed as Milled",7.9543 weight percent
same,Particle Size Distribution,"[3]; Size >298 μm, listed as Milled",0.0000 weight percent
same,mean particle size,[3]; listed as Milled,19.1 μm
same,median particle size,[3]; listed as Milled,10.3 μm
same,"Summary Particle Size Distribution, Cumul.","[3]; up to Sieve Size 2.3-3.9 μm, listed as Milled",26.99 wt %
same,"Summary Particle Size Distribution, Cumul.","[3]; up to Sieve Size 4.6-16 μm, listed as Milled",68.92 wt %
same,"Summary Particle Size Distribution, Cumul.","[3]; up to Sieve Size 19-37 μm, listed as Milled",89.07 wt %
same,"Summary Particle Size Distribution, Cumul.","[3]; up to Sieve Size 44-88 μm, listed as Milled",98.46 wt %
same,"Summary Particle Size Distribution, Cumul.","[3]; up to Sieve Size 105-149 μm, listed as Milled",99.85 wt %
same,"Summary Particle Size Distribution, Cumul.","[3]; up to Sieve Size <1.9 μm, listed as Milled",11.73 wt %
same,"Summary Particle Size Distribution, Cumul.",[3]; [4],˜100* wt %
